According to US6277872A, “Oxadiazoles, processes for their preparation and their use as medicaments” (Boehringer Ingelheim KG, priority 1996, dated 2001):

Legend:
[1] = system: permanent focal cerebral ischaemia (MCAO); assay: Stroke model in the rat, permanent focal cerebral ischaemia by occlusion of the arteria cerebri media (MCAO); format: in vivo
Excerpt: A permanent focal cerebral ischaemia was induced by surgical occlusion of the arteria cerbri media (MCAO) (based on A. Tamura, D. I. Graham, J. McCulloch and G. M. Teasdale, J. Cereb. Blood Flow Metab. 1 (1981) 53-60).

AMPA receptor = assay: Inhibition of the cainate-induced signal at the AMPA receptor, electrophysiology on neuronal cells (Patch-Clamp-Method); format: cell-based; conditions: test concentration of 100 μM
Description: The tests were carried out at a test concentration of 100 μM.

Sigma receptor = Sigma receptor binding study; conditions: test concentration typically 10 μM
Description: (§1) The tests were typically carried out at a test concentration of 10 μM.

Histamine H1 receptor = target: T1, Histamine H1 receptor (Cavia porcellus, UniProt P31389); assay: Histamine H1 receptor binding study; conditions: test concentration typically 10 μM; read-out: H1 Inh. [%]
T1 construct: from tissue
Excerpt: Table 5 summarises the inhibitory values on the above receptors:

[2] = system: "Na+ channel site 2"-binding site; assay: Binding to the Na+ channel site 2 binding site ([3H]-BTX); conditions: test concentration typically 10 μM
Description: as §1

T1 sequence (P31389 whole entry): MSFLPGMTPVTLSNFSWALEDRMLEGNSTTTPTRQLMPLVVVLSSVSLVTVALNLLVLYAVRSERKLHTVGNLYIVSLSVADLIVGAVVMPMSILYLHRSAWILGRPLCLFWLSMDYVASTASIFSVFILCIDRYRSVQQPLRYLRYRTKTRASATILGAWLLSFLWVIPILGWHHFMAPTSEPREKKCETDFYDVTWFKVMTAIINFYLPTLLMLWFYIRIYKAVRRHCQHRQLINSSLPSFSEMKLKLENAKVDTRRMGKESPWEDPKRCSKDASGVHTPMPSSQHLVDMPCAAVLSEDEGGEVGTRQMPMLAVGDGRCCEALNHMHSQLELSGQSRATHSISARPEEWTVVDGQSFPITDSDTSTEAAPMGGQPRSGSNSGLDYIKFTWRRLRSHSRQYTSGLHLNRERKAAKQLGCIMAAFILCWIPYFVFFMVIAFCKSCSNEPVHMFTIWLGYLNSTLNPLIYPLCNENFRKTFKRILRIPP

Row | Compound | Sigma Inh. [%] (Sigma receptor) | inhibition at 10 µM (Histamine H1 receptor) [%] | Na+-channel Inh. [%] ([3H]-BTX) [2] | volume of the lesion [1] | AMPA Inh. [%] (inhibiting the cainate-induced signal at the AMPA receptor) (AMPA receptor)
1 | CN(C)CCOc1ccccc1-c1nc(-c2ccc(Cl)cc2Cl)no1 [Example 28, 5-{2-[2-(N,N-Dimethylamino)-ethyl]oxy-phenyl}-3-(2,4-dichloro-phenyl)-1,2,4-oxadiazole] | 84 | 92 | 91 | – | 87
2 | CN(C)CCOc1ccccc1-c1nc(-c2cccc(C(F)(F)F)c2)no1 [Example 44, 5-{2-[2-(N,N-Dimethylamino)-ethyl]oxy-phenyl}-3-(3-rifluoromethylphenyl)-1,2,4-oxadiazole] | 93 | 74 | 89 | – | 62
3 | CN(C)CCOc1ccccc1-c1nc(-c2ccccn2)no1 [Example 43, 5-{2-[2-(N,N-Dimethylamino)-ethyl]oxy-phenyl}-3-(2-pyridyl)-1,2,4-oxadiazole] | 0 | 86 | 72 | – | 77
4 | Cc1cccc(-c2nc(-c3ccccc3)no2)c1OCCN(C)C [Example 68, 5-{2-[2-(N,N-Dimethylamino)-ethyl]oxy-3-methyl-phenyl}-3-phenyl-1,2,4-oxadiazole] | 79 | 74 | 100 | – | 81
5 | CN(C)CCOc1ccccc1-c1nc(-c2ccccc2F)no1 [Example 34] | 75 | 96 | 88 | – | 97

Continued, in another order:

Row | Sigma Inh. [%] (Sigma receptor) | inhibition at 10 µM (Histamine H1 receptor) [%] | Na+-channel Inh. [%] ([3H]-BTX) [2] | Compound | volume of the lesion [1] | AMPA Inh. [%] (inhibiting the cainate-induced signal at the AMPA receptor) (AMPA receptor)
6 | 62 | 99 | 86 | CN(C)CCOc1ccccc1-c1nc(-c2ccccc2)no1 [Example 2, 5-{2-[2-(N,N-dimethylamino)ethyl]oxy-phenyl}-3-phenyl-1,2,4-oxadiazole] | reduce the volume of the lesion significantly | 86
7 | 65 | 78 | 80 | Cc1ccc(-c2noc(-c3ccccc3OCCN(C)C)n2)cc1 [Example 17, 5-{2-[2-(N,N-Dimethylamino)-ethyl]oxy-phenyl}-3-(4-methyl-phenyl)-1,2,4-oxadiazole] | – | 97
8 | 85 | 98 | 79 | CN(C)CCOc1ccccc1-c1nc(-c2ccc(F)cc2)no1 [Example 45, 5-{2-[2-(N,N-Dimethylamino)-ethyl]oxy-phenyl}-3-(4-fluoro-phenyl)-1,2,4-oxadiazole] | – | 64
9 | 82 | 84 | 70 | CN(C)CCOc1ccccc1-c1nc(-c2cccc(Cl)c2)no1 [Example 59, 5-{2-[2-(N,N-Dimethylamino)-ethyl]oxy-phenyl}-3-(3-chlorophenyl)-1,2,4-oxadiazole] | – | 54
10 | 54 | 90 | 92 | Cc1ccc(-c2nc(-c3ccccc3)no2)c(OCCN(C)C)c1 [Example 67, 5-{2-[2-(N,N-Dimethylamino)-ethyl]oxy4-methyl-phenyl}-3-phenyl-1,2,4-oxadiazole] | – | 28
11 | 80 | 94 | 85 | CN(C)CCOc1ccccc1-c1nc(-c2ccc(Cl)cc2)no1 [Example 18, 5-{2-[2-(N,N-Dimethylamino)-ethyl]oxy-phenyl}-3-(4-chlor-phenyl)-1,2,4-oxadiazole] | – | 80
